Laboratory results taken from patent US8129427B2, “2-phenylethylamino derivatives as calcium and/or sodium channel modulators” (Newron Pharmaceuticals S.p.A., priority 2005, dated 2012).

Legend:
[1] = test system: sodium currents of cortical neurons; assay: Inhibition of sodium currents in cortical neurons (whole cell patch clamp); assay type: cell-based; conditions: embryonic Wistar rat cortical neurons, preconditioning −50 mV (half maximal steady-state condition); read-out: IC50 (Vhalf)
Method: Cell Preparation and culturing: cortical neurons were prepared from embryonic Wistar rats (E17-E19). Brains of E17/E19 rats were removed and placed in ice-cold Hank's solution (Hank's solution (Life tech.14170-088)+glucose 30%+Pen-Strep 100× (Life Tech. 15140-122) 100 U-100 μg/ml and Hepes-NaOH 5 mM).
Cortex were isolated, cut in small parts and washed twice with Hank's solution. The solution was removed except 1-2 ml and the tissue was mechanically dissociated. After the mechanical dissociation, 5 ml of complete DMEM (Dulbecco's modified Eagle medium) (Gibco 41966-029)+FBS (Hyclone) 10%+Glutamine (Life Tech. 25030-024) 2 mM+Pen-Strep 100 U-100 μg/ml were added, and cell suspension was centrifuged for 5 min at 1000 rpm. Supernatant was removed and 5 ml of complete Neurobasal medium was added (Neurobasal medium (Life tech. 21103-049)+B27 (Life tech. 17504-044) 2%+Glutamine 2 mM+Pen-Strep 100 U-100 μg/ml)
Cells were counted and diluted in Neurobasal medium to a concentration of 400000 cells per poly-D-lysine 5 μg/ml treated Petri dish. […]
Whole Cell Patch Clamp Recordings: Experiments on cortical neurons were carried out using standard whole cell patch clamp methods (Hamill et al., 1981). Membrane currents were recorded and filtered at 5 kHz with an Axon Axopatch 200B amplifier and data digitized with an Axon Digidata 1322A (Axon Instruments, CA, USA). […]

[2] = test system: PCP induced deficits in the 5-CSRT task in DBA/2N mice; assay: Cognitive impairment in schizophrenia: PCP-induced deficits in five-choice serial reaction time task; assay type: in vivo, mouse
L-type calcium channels = assay type: cell-based, mouse; conditions: AtT20/D16v-F2 cells, ω-conotoxin 1 μM, 100 mM KCl depolarization
[3] = biological target: recombinant human N-type channels, h α1B (hCav2.2)+β1b+α2δ-1 subunits (Homo sapiens, UniProt Q00975); assay: Patch clamp studies of calcium currents inhibition in HEK293 cells; assay type: cell-based; conditions: tonic block, preconditioning −50/−55 mV (half maximal steady-state inactivated condition); read-out: IC50 (Vhalf)
Method: Functional inhibition of the N-type Ca currents was studied using whole cell patch clamp methods (Hamill O. P., Marty A., Neher E., Sakmann B., Sigworth F. J. Pflugers Arch. (1981) 391: 85-100) on HEK293 cells expressing recombinant human N-type channels, obtained after transient transfection of h α1B (hCav2.2)+β1b+α2δ-1 subunits.
Membrane currents were recorded and filtered at 5 kHz with an Axon Axopatch 200B amplifier and digitized with an Axon Digidata 1322A (Axon Instruments, CA, USA). Voltage clamping of membrane potentials and data acquisition were controlled online with Axon pClamp8 software. Measuring and reference electrodes were AgCl—Ag electrodes. Cells had initial seal resistances of >1 GΩ and access resistances of 4.2±0.2 MΩ. Cells were continuously superfused with extracellular solutions using a Biologic RSC-200.
For calcium currents recording the control bath solution contained (mM): Choline chloride (70), MgCl2 (1), BaCl2 (20), TEA.Cl (50), Hepes (10), Glucose (10). Internal pipette solution consisted of (mM): CsCl (140), EGTA (10), MgCl2 (2), Hepes (10), MgATP (1), GTP Tris (0.3).
Compounds were dissolved as 20 mM stock solutions in DMSO and then diluted to the final concentration in the external solutions.
A two-step protocol was used to determine the voltage dependence of the block:
N-type current was activated by a 600 ms step pulse to +10 mV (test pulse) from a 5000 ms preconditioning potential of −110 mV (resting condition) or −50/−55 mV (half maximal steady-state inactivated condition), respectively.
The amplitude of calcium current peaks evoked by the respective test pulses at a frequency of 0.06 Hz were measured before and after exposure to the test substance. Tonic block of currents was calculated as the difference between the peak calcium current measured at the end of a stabilization period in the control external bath solution and peak currents measured at the end of test substance perfusion period (when steady state is reached) divided by control peaks. […]

[4] = 10 mg/Kg i.p. + PCP (1.5 mg/kg)

recombinant human N-type channels, h α1B (hCav2.2)+β1b+α2δ-1 subunits, sequence (Q00975 whole entry): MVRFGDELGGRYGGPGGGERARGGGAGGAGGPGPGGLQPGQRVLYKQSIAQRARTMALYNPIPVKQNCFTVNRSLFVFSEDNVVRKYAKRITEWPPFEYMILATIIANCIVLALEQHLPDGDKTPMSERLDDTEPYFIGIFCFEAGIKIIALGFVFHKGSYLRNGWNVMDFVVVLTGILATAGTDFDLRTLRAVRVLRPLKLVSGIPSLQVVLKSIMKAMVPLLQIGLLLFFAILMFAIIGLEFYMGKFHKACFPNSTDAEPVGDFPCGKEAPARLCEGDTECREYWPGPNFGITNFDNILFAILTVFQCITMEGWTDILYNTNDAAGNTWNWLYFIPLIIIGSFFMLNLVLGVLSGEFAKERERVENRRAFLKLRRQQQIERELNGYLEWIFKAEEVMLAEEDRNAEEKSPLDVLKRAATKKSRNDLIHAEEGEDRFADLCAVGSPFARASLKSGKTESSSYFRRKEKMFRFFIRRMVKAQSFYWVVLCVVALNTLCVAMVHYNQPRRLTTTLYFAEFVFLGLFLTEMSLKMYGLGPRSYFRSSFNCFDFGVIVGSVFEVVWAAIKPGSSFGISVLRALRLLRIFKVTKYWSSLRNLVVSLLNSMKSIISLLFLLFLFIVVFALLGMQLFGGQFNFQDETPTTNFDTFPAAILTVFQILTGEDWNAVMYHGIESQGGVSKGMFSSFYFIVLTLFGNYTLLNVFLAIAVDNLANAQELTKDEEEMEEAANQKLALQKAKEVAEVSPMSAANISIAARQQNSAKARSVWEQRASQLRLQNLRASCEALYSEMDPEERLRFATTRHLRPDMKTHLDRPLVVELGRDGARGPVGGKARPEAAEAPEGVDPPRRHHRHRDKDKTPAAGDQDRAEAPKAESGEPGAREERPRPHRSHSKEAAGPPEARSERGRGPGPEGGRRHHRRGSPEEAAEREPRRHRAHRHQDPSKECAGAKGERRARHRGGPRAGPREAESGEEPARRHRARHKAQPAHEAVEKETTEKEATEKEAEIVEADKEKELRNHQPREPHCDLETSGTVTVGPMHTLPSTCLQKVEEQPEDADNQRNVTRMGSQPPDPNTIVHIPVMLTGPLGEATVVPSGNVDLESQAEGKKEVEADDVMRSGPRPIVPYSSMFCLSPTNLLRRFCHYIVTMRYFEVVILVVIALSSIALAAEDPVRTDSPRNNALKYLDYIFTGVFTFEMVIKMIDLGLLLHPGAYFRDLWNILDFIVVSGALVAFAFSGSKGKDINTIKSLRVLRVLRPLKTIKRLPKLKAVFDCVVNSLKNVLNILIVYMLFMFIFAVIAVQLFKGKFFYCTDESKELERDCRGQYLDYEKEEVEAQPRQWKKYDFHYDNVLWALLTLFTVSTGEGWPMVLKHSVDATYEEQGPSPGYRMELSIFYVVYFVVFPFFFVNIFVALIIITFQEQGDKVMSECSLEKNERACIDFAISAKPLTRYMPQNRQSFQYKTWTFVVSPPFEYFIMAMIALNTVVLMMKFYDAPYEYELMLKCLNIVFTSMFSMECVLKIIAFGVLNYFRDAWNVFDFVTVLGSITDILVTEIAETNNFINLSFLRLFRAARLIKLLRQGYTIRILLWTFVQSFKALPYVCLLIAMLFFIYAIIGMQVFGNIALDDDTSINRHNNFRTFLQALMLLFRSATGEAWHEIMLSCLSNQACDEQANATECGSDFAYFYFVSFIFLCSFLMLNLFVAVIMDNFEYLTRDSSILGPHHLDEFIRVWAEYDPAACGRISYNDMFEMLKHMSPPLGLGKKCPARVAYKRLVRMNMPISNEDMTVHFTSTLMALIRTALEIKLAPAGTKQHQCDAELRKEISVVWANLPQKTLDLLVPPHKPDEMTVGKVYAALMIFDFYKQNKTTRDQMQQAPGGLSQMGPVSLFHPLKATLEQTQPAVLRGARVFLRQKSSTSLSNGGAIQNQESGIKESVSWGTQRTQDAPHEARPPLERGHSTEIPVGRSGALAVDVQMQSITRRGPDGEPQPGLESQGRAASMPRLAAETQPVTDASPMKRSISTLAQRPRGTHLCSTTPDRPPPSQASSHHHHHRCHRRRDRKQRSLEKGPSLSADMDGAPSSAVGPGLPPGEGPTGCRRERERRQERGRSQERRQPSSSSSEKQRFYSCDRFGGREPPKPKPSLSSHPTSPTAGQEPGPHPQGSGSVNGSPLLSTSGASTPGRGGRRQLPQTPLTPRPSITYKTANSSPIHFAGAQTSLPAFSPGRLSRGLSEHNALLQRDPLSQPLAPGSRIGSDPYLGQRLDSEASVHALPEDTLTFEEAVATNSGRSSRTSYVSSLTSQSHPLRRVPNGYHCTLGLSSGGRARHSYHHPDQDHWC
recombinant human N-type channels, h α1B (hCav2.2)+β1b+α2δ-1 subunits, sequence (Q02641 whole entry partner): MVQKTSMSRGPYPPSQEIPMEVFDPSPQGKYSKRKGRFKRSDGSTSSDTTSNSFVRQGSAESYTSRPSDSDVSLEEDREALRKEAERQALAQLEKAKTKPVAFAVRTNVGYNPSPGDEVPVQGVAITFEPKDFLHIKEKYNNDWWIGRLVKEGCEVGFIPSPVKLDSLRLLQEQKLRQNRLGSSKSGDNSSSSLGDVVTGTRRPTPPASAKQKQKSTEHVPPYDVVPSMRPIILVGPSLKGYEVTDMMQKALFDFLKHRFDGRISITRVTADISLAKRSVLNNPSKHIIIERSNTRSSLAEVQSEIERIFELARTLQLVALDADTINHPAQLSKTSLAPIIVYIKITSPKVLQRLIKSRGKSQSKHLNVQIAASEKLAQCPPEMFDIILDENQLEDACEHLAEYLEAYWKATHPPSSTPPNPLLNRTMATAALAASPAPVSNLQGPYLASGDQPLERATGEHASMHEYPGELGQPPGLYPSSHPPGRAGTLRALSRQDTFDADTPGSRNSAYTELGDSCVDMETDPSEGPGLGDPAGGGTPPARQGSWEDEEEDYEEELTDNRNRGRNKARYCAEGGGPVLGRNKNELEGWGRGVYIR
recombinant human N-type channels, h α1B (hCav2.2)+β1b+α2δ-1 subunits, sequence (P54289 25-956 partner limits assumed): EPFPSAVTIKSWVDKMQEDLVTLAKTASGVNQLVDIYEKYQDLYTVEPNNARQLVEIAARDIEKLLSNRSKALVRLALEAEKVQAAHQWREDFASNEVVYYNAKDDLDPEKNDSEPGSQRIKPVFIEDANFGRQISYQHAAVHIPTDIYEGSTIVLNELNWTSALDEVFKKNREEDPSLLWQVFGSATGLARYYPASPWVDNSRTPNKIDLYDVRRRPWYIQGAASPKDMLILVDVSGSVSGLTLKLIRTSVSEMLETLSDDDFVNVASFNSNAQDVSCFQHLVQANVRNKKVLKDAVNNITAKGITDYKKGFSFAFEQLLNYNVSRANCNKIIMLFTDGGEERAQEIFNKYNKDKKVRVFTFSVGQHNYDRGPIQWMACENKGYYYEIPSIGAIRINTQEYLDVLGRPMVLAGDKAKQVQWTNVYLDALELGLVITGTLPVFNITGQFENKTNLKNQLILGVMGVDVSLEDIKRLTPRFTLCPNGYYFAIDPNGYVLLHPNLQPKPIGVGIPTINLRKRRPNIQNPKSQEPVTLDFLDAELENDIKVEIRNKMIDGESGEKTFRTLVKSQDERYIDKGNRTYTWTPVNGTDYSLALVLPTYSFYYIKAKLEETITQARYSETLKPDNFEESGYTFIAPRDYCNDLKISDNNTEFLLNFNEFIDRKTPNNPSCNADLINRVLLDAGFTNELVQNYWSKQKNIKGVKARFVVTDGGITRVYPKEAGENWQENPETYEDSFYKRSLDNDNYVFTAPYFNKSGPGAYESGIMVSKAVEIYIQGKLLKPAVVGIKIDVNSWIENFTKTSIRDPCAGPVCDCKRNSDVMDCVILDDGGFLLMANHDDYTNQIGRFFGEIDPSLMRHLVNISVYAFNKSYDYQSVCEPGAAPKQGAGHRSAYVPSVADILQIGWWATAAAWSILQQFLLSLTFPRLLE
recombinant human N-type channels, h α1B (hCav2.2)+β1b+α2δ-1 subunits, sequence (P54289 957-1103 partner limits assumed): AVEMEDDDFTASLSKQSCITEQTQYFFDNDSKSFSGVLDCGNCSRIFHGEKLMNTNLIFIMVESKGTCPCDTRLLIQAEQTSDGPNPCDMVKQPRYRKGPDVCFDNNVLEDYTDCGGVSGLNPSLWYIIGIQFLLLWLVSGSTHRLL

Row | Compound | IC50 [1] [µM] | N of anticipatory resposnses [2, 4] | N of perseverative responses [2, 4] | N of anticipatory resposnses ([2]; 10 mg/Kg i.p. + vehicle) | N of perseverative responses ([2]; 10 mg/Kg i.p. + vehicle) | IC50 (L-type calcium channels) [µM] | IC50 [3] [µM]
1 | CCCCOc1cccc(CCN(CC(=O)N(C)C)CC2CCOC2)c1.Cl (racemic) [Example 96, 2-[[2-(3-Butoxy-phenyl)-ethyl]-(tetrahydrofuran-3-ylmethyl)amino]-N,N-dimethyl-acetamide hydrochloride] | 0.5 | 3.7 ± 1.6 | 15.7 ± 3.1 | 3.3 ± 0.7 | 20.9 ± 1.3 |  | 
2 | C[C@H](NCc1ccc(OCc2ccccc2F)cc1)C(N)=O [ralfinamide, (S)-(+)-2-[4-(2-fluoro-benzyloxy)-benzylamino]-propanamide, reference compound] | 9 |  |  |  |  | 26 | 15
